Measurements as given in patent publication EP0077430B1, “A pharmaceutical composition for enhancing keratinogenesis and reducing facial and scalp seborrhea” (Mavi S.r.l., priority 1981, dated 1983).

Legend:
Type in all cases: in vivo, Whistar rats
[1] = test system: normal rats, not subjected previously to a biotin poor diet; test: Experimental test 2, lot II: composition of hair keratin of normal rats fed an enriched diet; conditions: 150 days of treatment
Text: (§1) The elective stimulating action has also been verified on rats, performed especially by the gelatin cystine, in the keratinization processes of the hairy structures, verifying the average content of sulphur and cystine of the hair of rats kept on a normal diet and respectively of rats kept on a biotin poor diet, fed respectively only gelatin, only cystine and the association of gelatin-cystine both in the form of mechanical mixture in hard capsules, and in the form melted in soft spherules.
(§2) 110 Whistar rats of both sexes were employed (55 males plus 55 females) of the average weight of 150 g±9, divided in two lots of respectively 60 (lot I) and 50 (lot II) rats each. Following the Kalopissis and Manoussos methodology already quoted in test 1, 50 rats of lot I were kept on a biotin poor diet for about 40 days until the appearance of an evident seborrhoic clinical condition was induced, while the remaining 10 served as controls. After having obtained the desired clinical condition with the appearance of seborrhoea and loss of hair in several zones, the 60 rats were divided into six groups of 10 rats each and treated as follows:
The 50 rats of the second lot (normal rats, not subjected previously to a biotin poor diet), divided into five groups of 10 rats each, have been fed respectively:
The quantity of the feed placed in the cages was calculated in such a way that the rats would ingest the same quantity per kg of cystin, FU gelatin or gelatin-cystine already described above.
After 150 days of treatment the rats, under ether anaesthesia, were partially depilated with a razor.
(§3) A part of the hair (about 100 mg) of all the animals of the two groups, thoroughly washed with alcohol and ethyl ether and dried, are used for the determination of the total sulphur carried out by means of titration, according to the previously mentioned McDonald methodology.
(§4) After having hydrolyzed the hair of all the animals (about 800 mg) previously washed as already described, the quantity of cystine was determined using an autoanalyzer.
(§5) The extraction of the total keratins of the hairs was carried out using the urea-thioglycolate method as described in Gillespie J. M., Reis P. J. and Schinckel P. G. (1964) Aust. J. Biol. Sci. 17, 548.
(§6) After determining from one portion the total keratin (total proteins), the keratin fraction of high sulphur content is separated through alkylation with iodo acetate, dialysis and precipitation of the protein of low sulphur content with zinc acetate at pH 6. The total sulphur was determined on the protein fraction "rich in sulphur" according to the already mentioned McDonald methodology.

[2] = test system: biotin poor rats; test: Experimental test 2, lot I: composition of hair keratin (sulphur, cystine, proteins) of biotin poor rats
Text: as §1, §2
The diets prepared specifically by a specialized firm were administered weekly in the cages of the rats, in accurately weighed quantity so that the rats, kept in single cages, would ingest together with the feed, respectively:
After six weeks of treatment and after having taken about 1 gof hair per rat, all the animals included the controls were sacrificed in a chloroform saturated atmosphere.
as §3, §4, §5, §6

[3] = test system: rats kept on a biotin poor diet; test: Experimental test 1: skin total lipids and hair sulphur content of rats on a biotin free diet with additives
Text: According to the invention in fact the intimate distribution of the cystine within the mass of "soft" gelatin ensures a particularly favorable oral absorption, so that it is possible to reduce the doses of active substances with respect to the doses established by the prior art for the indicated pharmaceutical use. […] It is in fact known that the alimentary insufficiency of biotin induces, in the rat, the formation of a seborrhoic clinical condition, characterized by the increase of the sebaceous secretion and by the fall of hair.
In order to have a direct comparison, said rats have been successively treated, in different lots, -with diets to which was added respectively gelatin, cystine, gelatin-cystine in mechanical mixture and gelatin-cystine in soft spherules.
60 Whistar rats were employed of both sexes (30 males and 30 females) of the average weight of 150 g±9. Following the Kalopissis et al methodology (U.S. patent No. 3629452) 50 rats were kept on a biotin free diet for about 40 days until an evident seborrhoic clinical condition had developed, while the remaining 10 served as controls. After obtaining the desired clinical condition with the development of seborrhoea and loss of hair in various zones, the 50 rats were subdivided into five groups of 10 rats each and treated as follows: • 1st group: biotin free diet added with cystine; • 2nd group: biotin free diet added with gelatin; • 3rd group: biotin free diet added with cystine and gelatin in mechanical mixture; • 4th group: biotin free diet added with the mixture of gelatin/cystine melted in soft spherules; • 5th group: biotin free diet; • 6th group: control.
The diets were administered weekly in the cages of the rats in accurately weighed quantity so that the rats, kept in single cages, would ingest together with the feed, respectively: • 1st group: 84 mg per kg a week of cystine; • 2nd group: 203 mg per kg a week of gelatin from collagen; • 3rd group: 84 mg per kg a week of cystine and 203 mg per kg a week of gelatin; • 4th group: 280 mg per kg a week of the melted mixture of gelatin/cystine comprising 79.8 mg of cystine and 200.2 mg of gelatin.
After three weeks of treatment and after taking about 200 mg of hairs per rat, all the animals, included the controls, were sacrificed in a chloroform saturated environment in order to control their skin total lipids and in order to carry out possible histological and bioptic examinations. […]
The content of the total lipids was determined gravimetrically by the difference in weight of the sample before and after the extraction in a Soxhlet with acetone for 10 days and further drying out in vacuum over P205 and paraffin for 24 hours.

[4] = hair of biotin poor rats, six weeks of treatment
[5] = in the biotin-poor rats, oral, P<0.05

N[C@@H](CSSC[C@H](N)C(=O)O)C(=O)O [Levo-cystine]
"Sulphur rich" keratin % [1]: 25.9±0.5° % | Cystine content % [1]: 13.8±0.6° % | Sulphur contained in the "sulphur rich keratin" % [1]: 5.1±0.2° % | Sulphur content % [1]: 3.6±0.1° % | "Sulphur rich" proteic fraction % [2, 4]: 20±1% | Sulphur contained in the "sulphur rich" proteic fraction, % [2, 4]: 3.9±0.05% | Sulphur content % [2, 4]: 2.48±0.07° % | Cystine content % ([2]; hair of biotin poor rats, six weeks of treatment, g/100 g of hairs, autoanalyzer after hydrolysis): 9.3±0.6% | Total proteins % ([2]; total keratins of hair, urea-thioglycolate extraction, biotin poor rats, six weeks): 90±1% | Total lipides % ([3]; dorsal skin, gravimetric after acetone extraction, biotin poor diet plus additive, three weeks of treatment, °=P<0.05 versus group VI (controls)): 38.1±2.987° % | increase of the total sulphur of the hair [3, 5]: about 7% | reduction of the total lipids of the skin [3, 5]: about 15% | Sulphur content (×g hair, %) ([3]; total sulphur by titration, percentage of dried weight of hair, biotin poor diet plus additive, three weeks of treatment): 2.48±0.066° %
